13 compounds from patent publication US11076595B2, “1-(n,n-disubstituted carbamoyl) 4-(substituted sulfonyl)triazolin-5-one derivative, 4-(n,n-disubstituted carbamoyl) 1-(substituted sulfonyl)triazolin-5-one derivative, and herbicide containing said derivative as active ingredient” (HOKKO CHEMICAL INDUSTRY CO., LTD., priority 2017, dated 2021) can be followed below.

Structures are written as SMILES.

Format in all cases: in vivo
For assay [1], the system named is Echinochloa crus-galli. As to the kind of experiment: Test Example 2: herbicidal effect test by treatment during growing period in paddy field. Conditions: treatment 7 days after sowing, 120 g/10a, evaluated 14 days after treatment. The protocol:
(§1) This test was performed with two replications per one formulation concentration plot, and 14 days after the formulation treatments, the weed suppression rate (%) was determined according to the following equation (Math. 1). Weed suppression rate (%)=(1−an average dry weight (g) of plants in treated plots/an average dry weight (g) of plants in untreated plots)×100 [Math. 1]
(§2) A Wagner pot having an area of 1/10000 are was filled with paddy field soil and after adding water, a chemical fertilizer (N:P:K=17:17:17) was mixed, followed by puddling. Thereafter, 30 grains of each of Echinochloa crus-galli, broad-leaved weed (Lindernia pyxidaria and Monochoria vaginalis) and Scirpus juncoides seeds were sown to a depth of 0 to 1 cm. Immediately after the sowing, the pot was flooded, and the depth of water was kept at about 3 cm. The pot was subsequently managed in a glass greenhouse. Seven days after sowing, an emulsifiable concentrate prepared according to Formulation Example 5 by using the compound shown in Table 6 below was diluted with water, and a predetermined amount of the water-diluted formulation was added dropwise. The application rate of the active ingredient, by conversion, corresponded to 120 g per 10 are. The test was performed with two replications per one formulation concentration plot, and 14 days after the formulation treatments, the weed suppression rate (%) was determined according to the equation (Math. 1).

The test system of assay [2] is Lindernia pyxidaria. The assay is described as above. Conditions: treatment 7 days after sowing, 120 g/10a, evaluated 14 days after treatment. The protocol: as §1, §2
Assay [3] has as its system Monochoria vaginalis. The assay is described as above. To be noted: treatment 7 days after sowing, 120 g/10a, evaluated 14 days after treatment. The protocol:
as §1, §2

Assay [4] concerns Scirpus juncoides. The assay is described as above. Conditions: treatment 7 days after sowing, 120 g/10a, evaluated 14 days after treatment. Here is the method:
as §1, §2

For assay [5], the system named is Echinochloa crus-galli. Kind of assay: Test Example 1: herbicidal effect test by soil treatment in paddy field. Conditions: 120 g/10a, paddy soil treatment just after sowing, 14 days after treatment.
Description: as §2, with “greenhouse. Just” for “greenhouse. Seven days”, “after that,” for “after sowing,”, “Table 5” for “Table 6”, “are.” for “are. The test was performed with two replications per one formulation concentration plot, and 14 days after the formulation treatments, the weed suppression rate (%) was determined according to the equation (Math. 1).”
as §1

For assay [6], the system named is Lindernia pyxidaria. The assay is described as above. Conditions: 120 g/10a, paddy soil treatment just after sowing, 14 days after treatment.
Description: as §2, with “greenhouse. Just” for “greenhouse. Seven days”, “after that,” for “after sowing,”, “Table 5” for “Table 6”, “are.” for “are. The test was performed with two replications per one formulation concentration plot, and 14 days after the formulation treatments, the weed suppression rate (%) was determined according to the equation (Math. 1).”
as §1

For assay [7], the system named is Monochoria vaginalis. The description is as above. Conditions: 120 g/10a, paddy soil treatment just after sowing, 14 days after treatment.
Description: as §2, with “greenhouse. Just” for “greenhouse. Seven days”, “after that,” for “after sowing,”, “Table 5” for “Table 6”, “are.” for “are. The test was performed with two replications per one formulation concentration plot, and 14 days after the formulation treatments, the weed suppression rate (%) was determined according to the equation (Math. 1).”
as §1

The subject of assay [8] is Scirpus juncoides. The assay is described as above. Conditions: 120 g/10a, paddy soil treatment just after sowing, 14 days after treatment.
Description: as §2, with “greenhouse. Just” for “greenhouse. Seven days”, “after that,” for “after sowing,”, “Table 5” for “Table 6”, “are.” for “are. The test was performed with two replications per one formulation concentration plot, and 14 days after the formulation treatments, the weed suppression rate (%) was determined according to the equation (Math. 1).”
as §1

For `CC(C)N(C(=O)n1ncn(S(=O)(=O)C(C)C)c1=O)c1ccc(Cl)cc1F` [Compound 1-73], the “weed suppression rate, Echinochloa crus-galli” value in the assay on Echinochloa crus-galli [1] and in the assay on Echinochloa crus-galli [5] was 100% each time. Also, the “weed suppression rate, Lindemia pyxidaria” value in the assay with Lindernia pyxidaria [2] is 80%; in the assay with Lindernia pyxidaria [6], 100%. In addition, the “weed suppression rate, Monochoria vaginalis” value in the assay with Monochoria vaginalis [3] and in the assay with Monochoria vaginalis [7] was 90% throughout. For the same compound, the results for the “weed suppression rate, Scirpus juncoides” value in the assay on Scirpus juncoides [4] and in the assay on Scirpus juncoides [8] were 100% and 80%, respectively.
With `CC(C)N(Cc1ccc(F)cc1F)C(=O)n1ncn(S(=O)(=O)C2CC2)c1=O` [Compound 1-238], the “weed suppression rate, Echinochloa crus-galli” value in the assay with Echinochloa crus-galli [1] and with Echinochloa crus-galli [5] was 90% each time. Also, the “weed suppression rate, Lindemia pyxidaria” value in the assay on Lindernia pyxidaria [2] and in the assay with Lindernia pyxidaria [6] was 80% throughout. For the same compound, the “weed suppression rate, Monochoria vaginalis” value in the assay with Monochoria vaginalis [3] came out at 90%; with Monochoria vaginalis [7] it was 80%. For the same compound, the “weed suppression rate, Scirpus juncoides” value with Scirpus juncoides [4] and in the assay with Scirpus juncoides [8] was 90% in each case.
As for `CC(C)N(C(=O)n1ncn(S(=O)(=O)c2cccs2)c1=O)c1ccc(F)cc1` [Compound 1-1052], the “weed suppression rate, Echinochloa crus-galli” value in the assay with Echinochloa crus-galli [1] and in the assay on Echinochloa crus-galli [5] was 90% in each case. Also, the “weed suppression rate, Lindemia pyxidaria” value with Lindernia pyxidaria [2] and in the assay on Lindernia pyxidaria [6] was 80% each time. Also, the “weed suppression rate, Monochoria vaginalis” value with Monochoria vaginalis [3] and in the assay with Monochoria vaginalis [7] was 80% each time. For the same compound, the “weed suppression rate, Scirpus juncoides” value in the assay with Scirpus juncoides [4] and in the assay on Scirpus juncoides [8] was 90% in each case.
On to `CC(C)N(C(=O)n1ncn(S(=O)(=O)C2CC2)c1=O)c1ccc(Cl)nc1` [Compound 1-248], for which the “weed suppression rate, Echinochloa crus-galli” value in the assay on Echinochloa crus-galli [1] and in the assay with Echinochloa crus-galli [5] was 100% each time. Also, the entries for the “weed suppression rate, Lindemia pyxidaria” value in the assay with Lindernia pyxidaria [2] and with Lindernia pyxidaria [6] were 90% and 100%, respectively. Also, the “weed suppression rate, Monochoria vaginalis” value in the assay on Monochoria vaginalis [3] and in the assay with Monochoria vaginalis [7] was 90% in each case. Further, the “weed suppression rate, Scirpus juncoides” value in the assay on Scirpus juncoides [4] amounted to 90%; in the assay with Scirpus juncoides [8] it was 100%.
On to `CC(C)N(C(=O)n1ncn(S(=O)(=O)C2CCCCC2)c1=O)c1ccc(Cl)cc1F` [Compound 1-314], for which the entries for the “weed suppression rate, Echinochloa crus-galli” value in the assay on Echinochloa crus-galli [1] and with Echinochloa crus-galli [5] were 90% and 100%, respectively. Also, the “weed suppression rate, Lindemia pyxidaria” value with Lindernia pyxidaria [2] and with Lindernia pyxidaria [6] was 100% throughout. Also, the “weed suppression rate, Monochoria vaginalis” value with Monochoria vaginalis [3] stood at 90%; in the assay with Monochoria vaginalis [7], 80%. In addition, the “weed suppression rate, Scirpus juncoides” value with Scirpus juncoides [4] and in the assay with Scirpus juncoides [8] was 100% throughout.
Turning to `Cc1ccc(N(C(=O)n2ncn(S(=O)(=O)C3CCCCC3)c2=O)C(C)C)c(F)c1` [Compound 1-320], the “weed suppression rate, Echinochloa crus-galli” value in the assay with Echinochloa crus-galli [1] and with Echinochloa crus-galli [5] was 90% each time. For the same compound, the “weed suppression rate, Lindemia pyxidaria” value amounted to 80% with Lindernia pyxidaria [2] and 90% with Lindernia pyxidaria [6]. Further, the results for the “weed suppression rate, Monochoria vaginalis” value with Monochoria vaginalis [3] and in the assay with Monochoria vaginalis [7] were 80% and 90%, respectively. Besides, the “weed suppression rate, Scirpus juncoides” value in the assay on Scirpus juncoides [4] and in the assay on Scirpus juncoides [8] was 90% in each case.
In the case of `CC(C)N(C(=O)n1ncn(S(=O)(=O)C2CCCCC2)c1=O)c1c(F)cc(F)cc1F` [Compound 1-310], the “weed suppression rate, Echinochloa crus-galli” value in the assay with Echinochloa crus-galli [1] and with Echinochloa crus-galli [5] was 100% each time. Moreover, the “weed suppression rate, Lindemia pyxidaria” value in the assay with Lindernia pyxidaria [2] and in the assay with Lindernia pyxidaria [6] was 100% each time. Also, the “weed suppression rate, Monochoria vaginalis” value in the assay with Monochoria vaginalis [3] and with Monochoria vaginalis [7] was 100% each time. Besides, the “weed suppression rate, Scirpus juncoides” value in the assay on Scirpus juncoides [4] and in the assay with Scirpus juncoides [8] was 100% throughout.
For `CC(C)N(C(=O)n1ncn(S(=O)(=O)C(C)C)c1=O)c1ccc(F)nc1` [Compound 1-91], the “weed suppression rate, Echinochloa crus-galli” value in the assay with Echinochloa crus-galli [1] and in the assay with Echinochloa crus-galli [5] was 100% each time. In addition, the “weed suppression rate, Lindemia pyxidaria” value in the assay on Lindernia pyxidaria [2] and in the assay on Lindernia pyxidaria [6] was 90% throughout. For the same compound, the “weed suppression rate, Monochoria vaginalis” value with Monochoria vaginalis [3] and in the assay on Monochoria vaginalis [7] was 90% in each case. For the same compound, the “weed suppression rate, Scirpus juncoides” value in the assay with Scirpus juncoides [4] and in the assay on Scirpus juncoides [8] was 90% each time.
In the case of `CC(C)N(C(=O)n1ncn(S(=O)(=O)C2CCCCC2)c1=O)c1ccccc1F` [Compound 1-296], the “weed suppression rate, Echinochloa crus-galli” value in the assay on Echinochloa crus-galli [1] and with Echinochloa crus-galli [5] was 90% in each case. Moreover, the “weed suppression rate, Lindemia pyxidaria” value came out at 90% with Lindernia pyxidaria [2] and 80% in the assay with Lindernia pyxidaria [6]. The “weed suppression rate, Monochoria vaginalis” value was determined as 90% in the assay on Monochoria vaginalis [3] and 80% with Monochoria vaginalis [7]. Besides, the “weed suppression rate, Scirpus juncoides” value in the assay with Scirpus juncoides [4] and in the assay on Scirpus juncoides [8] was 90% in each case.
With `CC(C)N(C(=O)n1ncn(S(=O)(=O)N(C)C)c1=O)c1cccnc1F` [Compound 1-1128], the “weed suppression rate, Echinochloa crus-galli” value in the assay on Echinochloa crus-galli [1] and in the assay with Echinochloa crus-galli [5] was 90% each time. Moreover, the “weed suppression rate, Lindemia pyxidaria” value with Lindernia pyxidaria [2] and in the assay with Lindernia pyxidaria [6] was 90% throughout. Further, the “weed suppression rate, Monochoria vaginalis” value in the assay on Monochoria vaginalis [3] and in the assay with Monochoria vaginalis [7] was 60% throughout. The “weed suppression rate, Scirpus juncoides” value in the assay on Scirpus juncoides [4] and in the assay on Scirpus juncoides [8] was 70% in each case.
In the case of `CC(C)N(C(=O)n1ncn(S(=O)(=O)C(C)C)c1=O)c1ccccc1F` [Compound 1-55], the “weed suppression rate, Echinochloa crus-galli” value in the assay on Echinochloa crus-galli [1] and in the assay on Echinochloa crus-galli [5] was 90% each time. The “weed suppression rate, Lindemia pyxidaria” value with Lindernia pyxidaria [2] and with Lindernia pyxidaria [6] was 90% throughout. The “weed suppression rate, Monochoria vaginalis” value in the assay on Monochoria vaginalis [3] and with Monochoria vaginalis [7] was 90% throughout. In addition, the “weed suppression rate, Scirpus juncoides” value in the assay with Scirpus juncoides [4] and in the assay with Scirpus juncoides [8] was 90% each time.
Consider `CC(C)N(C(=O)n1ncn(S(=O)(=O)C2CC2)c1=O)c1ccc(Cl)cc1Br` [Compound 1-219], for which the “weed suppression rate, Echinochloa crus-galli” value in the assay on Echinochloa crus-galli [1] and with Echinochloa crus-galli [5] was 100% throughout. Moreover, the figures for the “weed suppression rate, Lindemia pyxidaria” value in the assay on Lindernia pyxidaria [2] and in the assay on Lindernia pyxidaria [6] were 90% and 100%, respectively. The “weed suppression rate, Monochoria vaginalis” value was 90% with Monochoria vaginalis [3] and 100% with Monochoria vaginalis [7]. Moreover, the “weed suppression rate, Scirpus juncoides” value in the assay with Scirpus juncoides [4] and with Scirpus juncoides [8] was 100% throughout.
On to `CC(C)N(C(=O)n1ncn(S(=O)(=O)C2CCCCC2)c1=O)c1ccc(C#N)cc1Cl` [Compound 1-328], for which the “weed suppression rate, Echinochloa crus-galli” value with Echinochloa crus-galli [1] and with Echinochloa crus-galli [5] was 90% in each case. The “weed suppression rate, Lindemia pyxidaria” value in the assay on Lindernia pyxidaria [2] and with Lindernia pyxidaria [6] was 80% each time. The “weed suppression rate, Monochoria vaginalis” value with Monochoria vaginalis [3] and in the assay on Monochoria vaginalis [7] was 80% throughout. The “weed suppression rate, Scirpus juncoides” value with Scirpus juncoides [4] and in the assay on Scirpus juncoides [8] was 90% each time.
